# Patent US20060079453A1, “Hla binding peptides and their uses” (priority 2002, published 2006)
# Read-outs that look alike come from different tables or passages of the source. No end group written: not given here.
# How the values were obtained:
# [1] = biological target: HLA-A*2902 (Homo sapiens, UniProt P04439, A270S/D101N/D185E/E176V/E277Q/E87Q/F33T/G231S/H175R/I121M/I218V/I322F/K168Q/L300P/L318F/M331R/P208A/P217A/Q86L/T323A/T345S/V100A/V358M); assay: MHC molecular binding / Capture assay, IC50: A*2902
# [2] = biological target: HLA-A*3002 (Homo sapiens, UniProt P04439, D101N/D140H/D185E/E176R/F33S/G80R/H175R/K168Q/Q94H/R138E/R41S/V100E); assay: biochemical; assay type: binding
# [3] = biological target: HLA-A*2301 (Homo sapiens, UniProt P04439, D101N/D140Y/D185E/E176V/E190D/F33S/G103R/G107R/H175R/I119L/I121M/I306V/K168Q/K335N/L105A/L300P/N151K/N90K/P307H/Q86E/Q94H/R106L/R138H/R89G/T104I/T345S/V100E/W191G/Y123F); assay: biochemical; assay type: binding
Compound,IC50 ([1]; A*2902 binding affinity (IC50)) [nM],IC50 ([2]; A*3002 binding affinity (IC50)) [nM],IC50 [3] [nM],IC50 ([3]; read-out: A*2301 binding affinity (IC50)) [nM],IC50 [1] [nM],IC50 [2] [nM],IC50 ([1]; Binding affinity to A*2902 (expressed as an IC50)) [nM]
VFLVFSNVL,33700,37700,4.9,,,,
LYNTEKGRHPF,> 50000,> 30000,1950,,,,
TYLPTGPGPGF,56600,33000,8.6,,,,
VFNVVNSSI,24000,,35,,,,
TYSGPGPGLF,7730,,92,,,,
TYCCKCDSTL,,,,30,,,
VYADLRIVY,,,122,,8.2,8.3,
VYDFVFADLRI,8900,7580,8,,,,
CC(C)C[C@H](NC(=O)[C@@H](N)CCCNC(=N)N)C(=O)N[C@@H](C)C(=O)N[C@@H](Cc1c[nH]cn1)C(=O)N[C@@H](CCC(=O)O)C(=O)N[C@H](C(=O)NCC(=O)N[C@@H](Cc1c[nH]c2ccccc12)C(=O)N[C@@H](CCCCN)C(=O)N[C@@H](Cc1ccc(O)cc1)C(=O)O)C(C)C,,,4630,,,3.8,
DFFLKSKFNI,,,304,,,,
AYIGPGPGF,15900,5730,12,,,,
YFILVNLL,4050,30000,82,,,,
CC(C)C[C@H](NC(=O)[C@@H](N)CO)C(=O)N[C@@H](Cc1ccccc1)C(=O)N[C@H](C(=O)N[C@@H](CO)C(=O)N[C@@H](CC(N)=O)C(=O)N[C@@H](Cc1c[nH]cn1)C(=O)N[C@@H](C)C(=O)N[C@@H](Cc1ccc(O)cc1)C(=O)O)C(C)C,,,30300,,,1.1,
TYLGPGPGLSF,600,26900,0.65,,,,
IYPGPGPGIF,18700,18000,12,,,,
MYVGDLCGSVF,612,1460,0.91,,,,
QLPPLERLTF,,,338,,> 37300,> 36600,

Compound,IC50 ([1]; A*2902 binding affinity (IC50)) [nM],IC50 ([2]; A*3002 binding affinity (IC50)) [nM],IC50 [3] [nM],IC50 ([3]; read-out: A*2301 binding affinity (IC50)) [nM],IC50 [1] [nM],IC50 [2] [nM],IC50 ([1]; Binding affinity to A*2902 (expressed as an IC50)) [nM]
IYYFDGNSW,3100,3030,6.1,,,,
IYPKGPGPGF,53600,61300,4.9,,,,
IYSKKRQEIF,,,360,,> 132000,21000,
LFLSTLSF,,> 75000,160,,,,
TYSVGPGPGF,121000,55200,340,,,,
MYVGPGPGSVF,,28200,4.4,,,,
QYNKPLCDLLI,> 167000,6680,36,,,,
VYHTQGYFPDF,,,68,,,> 22600,
MYVGDGPGPGF,8660,39600,11,,,,
LFLNTLSF,1010,118000,104,,,,
KYGPGPGTTTL,9180,7060,130,,,,
TYGIIVPVL,30100,1520,20,,,,
MYVGGPGPGVF,,,85,,,,89
TYSVSFDSLF,,5220,12,,,,
YYGKQENW,> 50000,> 30000,951,,,,
VYKFLFTDLRI,30200,1870,14,,,,
